Read-outs that look alike come from different tables or passages of the source.
Experiments:
[1] = test system: Human peripheral blood mononuclear cells; assay: Human Concanavalin-A Proliferation Assay (Con HU Assay); type: cell-based; settings: concanavalin-A stimulated human PBMC; for inhibition at 10 µM: 72 h, concentration 10 μm (in parentheses in the cell), read-out: % Inhibition of proliferation (at concentrations of 1,10, or 100 μm); for inhibition at 10 µM / % Inhibition of proliferation (at concentrations of 1,10, or 100 μm): 3 days; for IC50: tritiated thymidine; for % Inhibition of proliferation (at concentrations of 1,10, or 100 μm): concentration 100 μm (in parentheses in the cell)
Outline: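 Histopaque-isolated human PBMC (50,000/well) were pre-incubated 15 min with compounds, then stimulated with concanavalin-A at 2.5 μg/ml final for 3 days at 37 °C, 5% CO2. Proliferation measured by 6 h pulse with 0.5 μCi/well [3H]thymidine and beta counting.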

[2] = test system: IL-5; assay: Measurement of IL-5 Levels in Human T Cells (IL-5 Assay); type: cell-based; settings: Human T cells (HUT 78), phorbol 12-myristate 13-acetate and anti-CD3, 32 hours, ELISA, read-out: IL-5 Inhibition IC50
Method: (§1) Measurement of IL-5 and IL-4 Levels in Human T Cells (IL-4 and IL-5 Assays) Human T cells (HUT 78) were cultured to 1×10^6/mL in RPMI 1640 medium containing 10% fetal calf serum, 100 U/mL penicillin and 100 μg/mL streptomycin. Cultures were then centrifuged, to pellet the cells, and cells resuspended in fresh medium to the same density. 0.2 mL samples of cells were incubated in 96-well plates with 8 μL of various concentrations of compound freshly diluted with the above medium from 100 mM solvent stocks (ethanol or DMSO). Immediately after addition of compound, cells were stimulated by addition of 2 ng/mL phorbol 12-myristate 13-acetate (1 μL of freshly prepared solution of stock (in DMSO) diluted with the above medium added to cells) and 750 μg/mL anti-CD3 (pre-coated at 4° C. overnight). Cell cultures were incubated at 37 OC for 32 hours, then cells pelleted by centrifugation and the supernatants harvested for ELISA. IL-4 and IL-5 ELISA's were performed according to standard procedures. Inhibition was calculated relative to cytokine levels produced from control stimulated cells not treated with compound.

[3] = test system: IL-4; assay: Measurement of IL-4 Levels in Human T Cells (IL-4 Assay); type: cell-based; settings: Human T cells (HUT 78), phorbol 12-myristate 13-acetate and anti-CD3, 32 hours, ELISA, read-out: IL-4 Inhibition IC50
Method: as §1

[4] = test system: IL-2; assay: CD3 and CD28 Activation of Peripheral Blood T Cells and Determination of Secreted IL-2 Levels (C28 HU Assay); type: cell-based, Human; settings: PBMC stimulated with anti-CD3 and anti CD28 mAbs, 24 hour; for inhibition at 1 µM: concentration 1 μM (in c2); for inhibition at 1 µM / inhibition at 100 µM: read-out: % Inhibition of IL-2 secretion (At concentrations of 1, 10, or 100 μM); for IC50: IL-2 secretion; for inhibition at 100 µM: concentration 100 μM (in c2)
Method: Human peripheral blood mononuclear cells were cultured in RPMI 1640 medium supplemented with 10 μg/ml gentamicin, 50 μM 2-mercaptoethanol, 1X MEM non-essential amino acids (Sigma Chemical Co., St. Louis, Mo.), 100 U/ml sodium penicillin G, 100 μg/ml streptomycin sulfate, 2 mM L-glutamine, 1 mM sodium pyruvate (Life Technologies, Grand Island, N.Y.) and 10% fetal bovine serum (Hyclone, Logan, Utah) at 37° C. with 5% CO2.
Human peripheral blood mononuclear cells (PBMC) were isolated by Ficoll-Hypaque seperation. PBMCs were stimulated with a combination of immobilized anti-CD3 and soluble anti CD28 mAbs as described in Faltynek, et al. J. Enzyme Inhibition 1995, 9, 111-122, hereby incorporated by reference. Following a 24 hour incubation, cell supernatants were harvested and IL-2 levels were determined. 100 μl of 5 μg/ml monoclonal murine anti-human IL-2 antibody (Biosource International) in D-PBS was added to 96 well Maxisorb plates (Nunc) and incubated at 4° C. overnight. Plates were washed 4 times with D-PBS containing 0.05% Tween 20 (wash buffer) and blocked with D-PBS containing 1% BSA and 10 mM NaN3 (Diluent/Blocking buffer) for 1-3 hours at room temperature or overnight at 4° C. Plates were washed and recombinant human IL-2 diluted (at 10,000, 5,000, 2,500, 1,250, 625, 312.5, 156.25, 78, 39, 20 pg/ml) in diluent/blocking buffer containing a matched percentage of complete RPMI 1640 medium as the unknown samples. Tissue culture supernatant at various dilutions were added in triplicate at 100 μl/well. Plates were incubated for 2 hours at room temperature and washed 4 times with wash buffer. 100 pl of rabbit anti-human IL-2 (10 μg/ml, Genzyme) was added and incubated for 1 hour at room temperature. The incubation was followed by 4 washes and subsequent addition of 100 pl of 1:2000 dilution of alkaline phosphatase-conjugated goat anti-rabbit F(ab′)2 (Biosource International). After 1 hour the plates were washed 4 times and 100 μl of pNPP (Southern Biotech or Sigma) at 1 mg/ml in buffer was added. Color development was allowed to proceed at room temperature for 20 minutes before addition of 50 μl of 2 N NaOH. Absorbance at 405 nm was determined using a plate reader (Molecular Devices). IL-2 concentrations were calcualted using SoftMax (Molecular Devices) based on the IL-2 standard solutions.

melting point	SMILES	inhibition at 1 µM ([4]; Homo sapiens)	other results
146 to 148 °C	O=C(Nc1ccc(-n2nc(C(F)(F)F)cc2C(F)(F)F)cc1)C1=CCCCC1 [Example 6, N-[4-[3,5-bis(trifluoromethyl)-1H-pyrazol-1-yl]phenyl]-1-cyclohexene-1-carboxamide]		inhibition at 10 µM ([1]; Homo sapiens, PBMC): 100%; IC50 ([1]; Homo sapiens, PBMC): 98 nM; IC50 ([2]; HuT78): 50 nM; IC50 ([3]; HuT78): 8 nM
152 to 153 °C	O=C(Nc1ccc(-n2nc(C(F)(F)F)cc2C(F)(F)F)cc1)c1ccc(Oc2cc(Cl)cc(Cl)c2)o1 [Example 8, N-[4-[3,5-bis(trifluoromethyl)-1H-pyrazol-1-yl]phenyl]-5-(3,5-dichlorophenoxy)-2-furancarboxamide]	20%	
	O=C(Nc1ccc(Cl)cc1)c1ccc(-n2nc(C(F)(F)F)cc2C(F)(F)F)cc1 [Example 24, N-4-[3,5-bis(trifluoromethyl)-1H-pyrazol-1-yl]-N-(4-chlorophenyl)benzamide]		IC50 [1]: 301 nM; % Inhibition of proliferation (at concentrations of 1,10, or 100 μm) [1]: 98(100) %; IC50 [2]: 150 nM; IC50 [4]: 380 nM; IC50 [3]: 150 nM
185 to 187 °C	O=C(Nc1ccccc1)Nc1ccc(-n2nc(C(F)(F)F)cc2C(F)(F)F)cc1 [Example 36, N-[4-[3,5-bis(trifluoromethyl)-1H-pyrazol-1-yl]phenyl]-N′-phenylurea]	10%	
193 to 196 °C	Cc1c(Cl)cccc1NC(=O)Nc1ccc(-n2nc(C(F)(F)F)cc2C(F)(F)F)cc1 [Example 38, N-[4-[3,5-bis(trifluoromethyl)-1H-pyrazol-1-yl]phenyl]-N′-(3-chloro-2-methylphenyl)urea]	16%	
129 to 130 °C	CCCCCCCNC(=O)Nc1ccc(-n2nc(C(F)(F)F)cc2C(F)(F)F)cc1 [Example 47, N-[4-[3,5-bis(trifluoromethyl)-1H-pyrazol-1-yl]phenyl]-N′-heptylurea]	2%	
86 to 88 °C	CC(C)(C)OC(=O)NCCCCCCC(=O)Nc1ccc(-n2nc(C(F)(F)F)cc2C(F)(F)F)cc1 [Example 64, 1,1-dimethylethyl [7-[[4-[3,5-bis(trifluoromethyl)-1H-pyrazol-1-yl]phenyl]amino]-7-oxoheptyl]carbamate]		IC50 ([4]; Homo sapiens): 22300 nM; inhibition at 100 µM ([4]; Homo sapiens): 86%
127 to 128 °C	CCCCC(CC)C(=O)Nc1ccc(-n2nc(C(F)(F)F)cc2C(F)(F)F)cc1 (centres unmarked) [Example 72, N-[4-[3,5-bis(trifluoromethyl)-1H-pyrazol-1-yl]phenyl]-2-ethylhexanamide]	11%	
130 to 132 °C	O=C(CCC1CCCC1)Nc1ccc(-n2nc(C(F)(F)F)cc2C(F)(F)F)cc1 [Example 99, N-[4-[3,5-bis(trifluoromethyl)-1H-pyrazol-1-yl]phenyl]cyclopentanepropanamide]	9%	
179 to 182 °C	O=C(Nc1ccc(-n2nc(C(F)(F)F)cc2C(F)(F)F)cc1)c1ccco1 [Example 113, N-[4-[3,5-bis(trifluoromethyl)-1H-pyrazol-1-yl]phenyl]-2-furancarboxamide]	19%	
> 230 °C	O=C(Nc1ccc(-n2nc(C(F)(F)F)cc2C(F)(F)F)cc1)c1cccs1 [Example 131, N-[4-[3,5-bis(trifluoromethyl)-1H-pyrazol-1-yl]phenyl]-2-thiophenecarboxamide]	32%	
156 to 158 °C	O=C(CCC(=O)c1ccc(F)cc1)Nc1ccc(-n2nc(C(F)(F)F)cc2C(F)(F)F)cc1 [Example 152, N-[4-[3,5-bis(trifluoromethyl)-1H-pyrazol-1-yl]phenyl]-4-fluoro-γ-oxobenzenebutanamide]	3%	
199 to 201 °C	O=C(Nc1ccc(-n2nc(C(F)(F)F)cc2C(F)(F)F)cc1)C1CCc2ccccc2C1 (centres unmarked) [Example 153, N-[4-[3,5-bis(trifluoromethyl)-1H-pyrazol-1-yl]phenyl]-1,2,3,4-tetrahydro-2-naphthalenecarboxamide]		IC50 ([4]; Homo sapiens): 457 nM; inhibition at 100 µM ([4]; Homo sapiens): 94%
147 to 149 °C	O=C(Nc1ccc(-n2nc(C(F)(F)F)cc2C(F)(F)F)cc1)c1cccc(F)c1F [Example 209, N-[4-[3,5-bis(trifluoromethyl)-1H-pyrazol-1-yl]phenyl]-2,3-difluorobenzamide]		inhibition at 10 µM ([1]; Homo sapiens, PBMC): 99%; IC50 ([1]; Homo sapiens, PBMC): 33 nM; IC50 ([2]; HuT78): 38 nM; IC50 ([3]; HuT78): 5 nM
	Cc1nnsc1C(=O)Nc1ccc(-n2nc(C(F)(F)F)cc2C(F)(F)F)cc1 [Example 250, N-[4-[3,5-bis(trifluoromethyl)-1H-pyrazol-1-yl]phenyl]-4-methyl-1,2,3-thiadizole-5-carboxamide]		IC50 [1]: 173 nM; % Inhibition of proliferation (at concentrations of 1,10, or 100 μm) [1]: 100(100) %; IC50 [2]: 80 nM; IC50 [4]: 102 nM; IC50 [3]: 50 nM
	O=C(Nc1ccc(-n2nc(C(F)(F)F)cc2C(F)(F)F)cc1)c1ccncc1F [Example 264, N-[4-[3,5-bis(trifluoromethyl)-1H-pyrazol-1-yl]phenyl]-3-fluoro-4-pyridinecarboxamide]		inhibition at 10 µM ([1]; Homo sapiens, PBMC): 100%; IC50 ([1]; Homo sapiens, PBMC): 42 nM; IC50 ([2]; HuT78): 22 nM; IC50 ([3]; HuT78): 4.8 nM
189 to 191 °C	Cc1ccnn1-c1ccc(NC(=O)c2ccc(Cl)cc2)cc1 [Example 284, 4-Chloro-N-[4-(5-methyl-1H-pyrazol-1-yl)phenyl]benzamide]	17%	
163 to 164 °C	Cc1nnsc1C(=O)Nc1ccc(-n2nccc2C)cc1 [Example 285, 4-Methyl-N-[4-(5-methyl-1H-pyrazol-1-yl)phenyl]-1,2,3-thiadiazole-5-carboxamide]	26%	
151 to 152 °C	Cc1noc(C)c1C(=O)Nc1ccc(-n2nccc2C)cc1 [Example 286, 3,5-dimethyl-N-[4-(5-methyl-1H-pyrazol-1-yl)phenyl]-4-isoxazolecarboxamide]	2%	
	C=CC[C@@H]1/C=C(\C)C[C@H](C)C[C@H](OC)[C@H]2O[C@@](O)(C(=O)C(=O)N3CCCC[C@H]3C(=O)O[C@H](/C(C)=C/[C@@H]3CC[C@@H](O)[C@H](OC)C3)[C@H](C)[C@@H](O)CC1=O)[C@H](C)C[C@@H]2OC [FK-506, tacrolimus, reference compound]		IC50 ([2]; HuT78): 0.5 nM; IC50 ([3]; HuT78): 0.7 nM
